From paper PMC10613524, “Rational design of the genetic code expansion toolkit for in vivo encoding of D-amino acids” (Frontiers in Genetics, 2023)

Target: T1, PylRSc (truncated PylRS, residues 185-454); mutant DFRSc (Methanosarcina mazei, UniProt Q8PWY1, S193R/N346G/C348Q/V401G, form not given)
T1 construct: gene pylS; C-terminal catalytic domain, residues 185-454, expressed in E. coli BL21 (DE3), Ni-NTA purified (DFRSc)
Assay: ATP-[…]PPi exchange assay (amino acid activation)
Format: biochemical
Details: apparent, 2 mM ATP, 1 mM PPi, 10 mM MgCl2, pH 7.2, 37°C, header prints μM × 10^3, text mM, read-out: K M , μM × 10^3

T1 sequence (Q8PWY1 185-454 S193R/N346G/C348Q/V401G, form open): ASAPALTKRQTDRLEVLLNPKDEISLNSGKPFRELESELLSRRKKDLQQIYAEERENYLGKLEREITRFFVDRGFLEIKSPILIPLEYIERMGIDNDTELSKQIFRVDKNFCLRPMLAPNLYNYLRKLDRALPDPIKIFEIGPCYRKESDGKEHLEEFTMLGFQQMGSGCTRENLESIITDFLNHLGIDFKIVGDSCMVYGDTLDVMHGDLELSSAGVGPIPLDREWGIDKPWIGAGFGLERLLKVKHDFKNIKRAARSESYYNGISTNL

| SMILES | Km |
| --- | --- |
| N[C@@H](Cc1cccc(C(F)(F)F)c1)C(=O)O [compound 2, L-CF3-Phe] | 7120 ± 1670 µM |
| N[C@@H](Cc1cccc(Cl)c1)C(=O)O [compound 4, L-Cl-Phe] | 5380 ± 1280 µM |
| N[C@@H](Cc1cccc(Br)c1)C(=O)O [compound 6, L-Br-Phe] | 9800 ± 1650 µM |
